Laboratory results as given in patent US20130178469A1, “NOVEL ANTIVIRAL AGENTS” (SHANGHAI INSTITUTE OF ORGANIC CHEMISTRY (SIOC), priority 2010, published 2013).
Read-outs that look alike come from different tables or passages of the source.

Legend:
HIV = assay: Inhibition of HIV Replication (NL4-3), extracellular p24 in HuT-78 cells; type: cell-based
Procedure: HuT-78 cells are seeded into 96 well microtitre plates at 50,000 cells per […] per well in RF-10 containing 2 μg/mL polybrene (RF-10/2). Compounds are prepared to 4× final concentration in RF-10/2, and […] added to cells. Virus (40 μL in RF-10/2 containing 1600 pfu) is added to each well or […] RF-10/2 for negative controls and for assaying compound cytotoxicity. After 24 hrs, an additional 90 μL of media or media containing 1× compound is added to each well. At 4 days post infection, 100 μL of media is removed from each well and replaced with 100 μl of fresh media with or without compound. Forty eight hours later supernatants are harvested and levels of extracellular p24 determined. Supernatants are diluted 1 in 10,000 and p24 levels assayed using the Vironostika p24 assay kit. EC50 is calculated as the concentration required to inhibit HIV p24 production to 50% that of no drug controls.
In the tables below, this assay type is referred to as NL4-3.

HIV-1 = assay: Luciferase Assay with single-round reporter virus (NLXLuc or HIV-Luc); type: cell-based
Description: Infectivity assays using reporter viruses derived from lentiviral vectors capable of a single round of infection were used to determine the activity (EC50) of compounds. The DNA used to generate viruses for infection was the full-length HIV-1 genome which had been envelope-deleted. In addition, a reporter gene (the firefly luciferase gene from Photinus pyralis) was cloned into the nefregion of the HIV backbone for ease of assay readout. […]. Culture supernatants containing VSV-G pseudotyped virions were harvested 64 h post transfection, clarified by centrifugation to remove cell debris, and frozen at −70° C. until use.
293FT cells were plated out at 12000 cells per well in CellView 96-well cell culture plates (Invitrogen) 16 h prior to compound addition. Compounds were preincubated with cells for 4 h at 37° C. prior to the addition of virus sufficient to generate approximately 10000 Luciferase light units (as measured by the Victor Wallace luminometer) upon assaying using the Bright-Glo™ reagent (Promega) according to the manufacturer's instructions at 48 h post infection.
In the tables below, this assay is referred to as NLXLuc or HIV-Luc.

[1] = Human immunodeficiency virus 1, NL43, HuT78

Structure (SMILES) | EC50 (HIV; [1]) [nM] | further results
O=C(NCc1ccc(Cl)c(Cl)c1)c1nc2c(N3CCOCC3)cc(N3CCOCC3)cn2c(=O)c1O [Example 22, N-(3,4-dichlorobenzyl)-3-hydroxy-7,9-dimorpholino-4-oxo-4H-pyrido[1,2-a]pyrimidine-2-carboxamide] | 1 to 10 | 
CCOC(=O)NC1=CC(N2CCOCC2)=CN2C(=O)C(O)C(C(=O)NCc3ccc(F)cc3)=NC12 (stereo not drawn) [Example 23.4, ethyl 2-(4-fluorobenzylcarbamoyl)-3-hydroxy-7-morpholino-4-oxo-4,9a-dihydro-3H-pyrido[1,2-a]pyrimidin-9-yl carbamate] |  | EC50 (HIV): 1 to 10 nM
O=C(NCc1ccc(F)cc1)c1nc2c(N3CCCS3(=O)=O)cc(N3CCOCC3)cn2c(=O)c1O [Example 24.4, N-(4-fluorobenzyl)-9-(1,3-propanesultam)-3-hydroxy-7-morpholino-4-oxo-4H-pyrido[1,2-a]pyrimidine-2-carboxamide] | < 1 | EC50 (HIV-1; Human immunodeficiency virus 1): 10 to 20 nM
O=C(NCc1ccc(Cl)c(Cl)c1)c1nc2c(N3CCCS3(=O)=O)cc(N3CCOCC3)cn2c(=O)c1O [Example 25, N-(3,4-dichlorobenzyl)-9-(1,3-propanesultam)-3-hydroxy-7-morpholino-4-oxo-4H-pyrido[1,2-a]pyrimidine-2-carboxamide] | < 1 | EC50 (HIV-1; Human immunodeficiency virus 1, HEK-293T): < 1 nM
CC(=O)Nc1cc(N2CCOCC2)cn2c(=O)c(O)c(C(=O)NCc3ccc(F)cc3)nc12 [Example 26.5, 9-acetamido-N-(4-fluorobenzyl)-3-hydroxy-7-morpholino-4-oxo-4H-pyrido[1,2-a]pyrimidine-2-carboxamide] | 20 to 100 | 
CC(=O)N(C)c1cc(N2CCOCC2)cn2c(=O)c(O)c(C(=O)NCc3ccc(F)cc3)nc12 [Example 28.3, N-(4-fluorobenzyl)-3-hydroxy-9-(N-methylacetamido)-7-morpholino-4-oxo-4H-pyrido[1,2-a]pyrimidine-2-carboxamide] | 1 to 10 | EC50 (HIV-1; Human immunodeficiency virus 1): 20 to 100 nM
Cc1ccc2nc(C(=O)NCc3ccc(F)cc3)c(O)c(=O)n2c1 [drawing 183, reference compound] | 100 to 1000 | 
Cc1ccc2nc(C(=O)NCc3ccc(Cl)c(Cl)c3)c(O)c(=O)n2c1 [drawing 189, reference compound] | 100 to 1000 | 
O=C(NCc1ccc(F)cc1)c1nc2ccc(Br)cn2c(=O)c1O [reference compound] | 100 to 1000 | 
